Test results taken from PubChem BioAssay AID328 (DTP/NCI, 2004).
Several values for one entry are separate records, joined by “and”; a condition that tells them apart may be missing. Equal values may be shown once. Inconclusive results and toxic doses are left out.

Tested on: BDF1 mice, P388 leukemia ip, median survival T/C
Assay: NCI In Vivo Anticancer Drug Screen. Data for tumor model P388 Leukemia (intraperitoneal) in B6D2F1 (BDF1) mice
Settings: endpoint: median survival time, higher = longer survival
Outline: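 Antitumour effect was judged in vivo: survival in drug-treated mice, normalised to that of vehicle-dosed controls, gives the reported T/C.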

[1] = dose: 100.0 mg/kg/injection, schedule: Q01DX009 (ip), vehicle: saline
[2] = dose: 200.0 mg/kg/injection, schedule: Q01DX009 (ip), vehicle: saline

SMILES: C1CCC2[N-]CC3CCCCC3[N-]CC3CCCCC3[N-]CC3CCCCC3[N-]CC2C1.[Cu] (stereo not given)
- T/C (dose: 0.39 mg/kg/injection, schedule: Q01DX009 (ip), vehicle: saline): 107 % of control
- T/C (dose: 0.78 mg/kg/injection, schedule: Q01DX009 (ip), vehicle: saline): 113 % of control
- T/C (dose: 3.12 mg/kg/injection, schedule: Q01DX009 (ip), vehicle: saline): 166 % of control
- T/C (dose: 6.25 mg/kg/injection, schedule: Q01DX009 (ip), vehicle: saline): 96 % of control

SMILES: Cc1ccc2c(/C=C/c3ccc(N(C)C)cc3)ccnc2c1C
- T/C (dose: 100.0 mg/kg/injection, schedule: Q01DX009 (ip), vehicle: saline with Tween-80): 120 % of control

SMILES: CCCCCCCCC(=O)Nc1ncnc2n[nH]nc12
- T/C (dose: 6.25 mg/kg/injection, schedule: Q01DX009 (ip), vehicle: saline with Tween-80): 87 % of control
- T/C (dose: 12.5 mg/kg/injection, schedule: Q01DX009 (ip), vehicle: saline with Tween-80): 90 % of control
- T/C (dose: 25.0 mg/kg/injection, schedule: Q01DX009 (ip), vehicle: saline with Tween-80): 102 % of control
- T/C (dose: 50.0 mg/kg/injection, schedule: Q01DX009 (ip), vehicle: saline with Tween-80): 109 % of control

SMILES: OCCN(CCO)c1cc(/C=C/c2cccc3ccccc23)nc2ccccc12
- T/C (dose: 50.0 mg/kg/injection, schedule: Q01DX009 (ip), vehicle: saline + alcohol): 100 % of control
- T/C (dose: 100.0 mg/kg/injection, schedule: Q01DX009 (ip), vehicle: saline + alcohol): 100 % of control
- T/C (dose: 200.0 mg/kg/injection, schedule: Q01DX009 (ip), vehicle: saline + alcohol): 103 % of control

SMILES: CCOC(=O)CS(=O)(=O)c1ccc(NC(C)=O)cc1
- T/C (dose: 50.0 mg/kg/injection, schedule: Q01DX009 (ip), vehicle: Klucel (hydroxypropylcellulose) (HPC)): 104 % of control
- T/C (dose: 100.0 mg/kg/injection, schedule: Q01DX009 (ip), vehicle: Klucel (hydroxypropylcellulose) (HPC)): 91 % of control and 120 % of control
- T/C (dose: 200.0 mg/kg/injection, schedule: Q01DX009 (ip), vehicle: Klucel (hydroxypropylcellulose) (HPC)): 96 % of control and 115 % of control
- T/C (dose: 400.0 mg/kg/injection, schedule: Q01DX009 (ip), vehicle: Klucel (hydroxypropylcellulose) (HPC)): 105 % of control

SMILES: c1ccc(C2CCCCCC2)cc1
- T/C [1]: 110 % of control
- T/C (dose: 100.0 mg/kg/injection, schedule: Q04DX003 (ip), vehicle: saline): 100 % of control
- T/C (dose: 166.0 mg/kg/injection, schedule: Q01DX009 (ip), vehicle: saline): 110 % of control
- T/C [2]: 105 % of control
- T/C (dose: 200.0 mg/kg/injection, schedule: Q04DX003 (ip), vehicle: saline): 90 % of control
- T/C (dose: 400.0 mg/kg/injection, schedule: Q04DX003 (ip), vehicle: saline): 100 % of control

SMILES: CCCCOP1(=O)N(C)CCN1C
- T/C (dose: 50.0 mg/kg/injection, schedule: Q01DX009 (ip), vehicle: saline): 102 % of control
- T/C [1]: 105 % of control
- T/C [2]: 102 % of control

SMILES: Cc1c2ccncc2c(C)c2c1[nH]c1ccccc12
- T/C (dose: 10.0 mg/kg/injection, schedule: Q01DX010 (ip), vehicle: saline): 163 % of control
- T/C (dose: 14.4 mg/kg/injection, schedule: Q04DX003 (ip), vehicle: clinical formulation): 117 % of control
- T/C (dose: 15.0 mg/kg/injection, schedule: Q01DX009 (ip), vehicle: water): 175 % of control
- T/C (dose: 15.0 mg/kg/injection, schedule: Q04DX003 (ip), vehicle: water): 166 % of control
- T/C (dose: 20.0 mg/kg/injection, schedule: Q01DX010 (ip), vehicle: saline): 159 % of control and 179 % of control
- T/C (dose: 21.6 mg/kg/injection, schedule: Q04DX003 (ip), vehicle: water): 172 % of control and 176 % of control
- T/C (dose: 24.0 mg/kg/injection, schedule: Q04DX003 (ip), vehicle: clinical formulation): 184 % of control
- T/C (dose: 30.0 mg/kg/injection, schedule: Q04DX003 (ip), vehicle: water): 208 % of control
- T/C (dose: 36.0 mg/kg/injection, schedule: Q04DX003 (ip), vehicle: water): 235 % of control and 215 % of control
- T/C (dose: 40.0 mg/kg/injection, schedule: Q01DX010 (ip), vehicle: saline): 150 % of control
- T/C (dose: 40.0 mg/kg/injection, schedule: Q04DX003 (ip), vehicle: clinical formulation): 208 % of control
- T/C (dose: 100.0 mg/kg/injection, schedule: Q04DX002 (ip), vehicle: Klucel (hydroxypropylcellulose) (HPC)): 200 % of control
- T/C (dose: 120.0 mg/kg/injection, schedule: Q04DX003 (ip), vehicle: water): 100 % of control
- T/C (dose: 200.0 mg/kg/injection, schedule: Q04DX002 (ip), vehicle: Klucel (hydroxypropylcellulose) (HPC)): 190 % of control
- T/C (dose: 400.0 mg/kg/injection, schedule: Q04DX002 (ip), vehicle: Klucel (hydroxypropylcellulose) (HPC)): 90 % of control
